Source: patent US20100009970A1, “COMPOSITIONS AND METHODS FOR TREATMENT OF VIRAL DISEASES” (Combinatorx (Singapore) Pte. Ltd., priority 2008, published 2010)
Where a name gives a salt, the structure may show the parent alone. Read-outs that look alike come from different tables or passages of the source.

Experiments:
in vitro = conditions: human, CC50 (uM) [SG]
[1] = tested on: Huh7 cells expressing a subgenomic RNA replicon of Con1 (genotype 1b) sequence origin; assay: microbe, parasite or virus in culture; conditions: Hepatitis C virus

For `CNc1cc(S(N)(=O)=O)ccc1Oc1ccc(SC)c(C)c1` [Compound 62, 4-(3-methyl-4-(methylthio)phenoxy)-3-(methylamino)benzenesulfonamide], the CC50 (in vitro) was over 50 µM.

Work on `CCN(CC)CCOCCOC(=O)C(CC)(CC)c1ccccc1` [Oxeladin, reference compound] yielded an IC50 ([1]; Huh-7) of 8.72 µM.

Molecule `COC(=O)Nc1nc2ccc([S+]([O-])c3ccccc3)cc2[nH]1` (stereo not shown) [Oxfendazole, reference compound] has an IC50 ([1]; Huh-7) of 7.3 µM.

Work on `CCCOc1ccc2nc(NC(=O)OC)[nH]c2c1` [Oxibendazole, reference compound] yielded an IC50 ([1]; Huh-7) of 0.3 µM.

With `CC(=O)O[C@H]1C(=O)[C@@]2(C)[C@H]([C@H](OC(=O)c3ccccc3)[C@]3(O)C[C@H](OC(=O)[C@H](O)[C@@H](NC(=O)c4ccccc4)c4ccccc4)C(C)=C1C3(C)C)[C@]1(OC(C)=O)CO[C@@H]1C[C@@H]2O` [Paclitaxel, reference compound] the IC50 ([1]; Huh-7) was 0.0092 µM.

`C=C1C(=O)O[C@H]2[C@H]1CC/C(C)=C/CC[C@@]1(C)O[C@@H]21` [Parthenolide, reference compound] gave an IC50 ([1]; Huh-7) of 2.69 µM.

Molecule `O=C1[C@H]2CCCC[C@H]2C(=O)N1CCCCN1CCN(c2nsc3ccccc23)CC1` [Perospirone, reference compound] has an IC50 ([1]; Huh-7) of 3.6 µM.

Molecule `Nc1ccc(/N=N/c2ccccc2)c(N)n1` [Phenazopyridine (e.g., hydrochloride), Phenazopyridine, reference compound] has an IC50 ([1]; Huh-7) of 7.85 µM.

For `Oc1cc(O)cc(/C=C/c2ccc(O)c(O)c2)c1` [Piceatannol, reference compound], the IC50 ([1]; Huh-7) was 5.47 µM.

Work on `CN(C)CCCN1c2ccccc2Sc2ccccc21` [Promazine (e.g., hydrochloride), promazine, reference compound] yielded an IC50 ([1]; Huh-7) of 16.1 µM.

For `CC[N+](C)(CC)CCC[n+]1c(-c2ccccc2)c2cc(N)ccc2c2ccc(N)cc21` [Propidium (e.g., iodide), Propidium, reference compound], the IC50 ([1]; Huh-7) was 9.38 µM.

`CCN(CC)CCCC(C)Nc1c2ccc(Cl)cc2nc2ccc(OC)cc12` (stereo not shown) [Quinacrine, reference compound] showed an IC50 ([1]; Huh-7) of 4.17 µM.

Molecule `C#C[C@]1(O)CC[C@H]2[C@@H]3CCc4cc(OC5CCCC5)ccc4[C@H]3CC[C@@]21C` [Quinestrol, reference compound] has an IC50 ([1]; Huh-7) of 5.43 µM.

For `O=C(c1ccc(OCCN2CCCCC2)cc1)c1c(-c2ccc(O)cc2)sc2cc(O)ccc12` [Raloxifene (e.g., hydrochloride), Raloxifene, reference compound], the IC50 ([1]; Huh-7) was 3.74 µM.

In the case of `CCOc1cc(CC(=O)N[C@@H](CC(C)C)c2ccccc2N2CCCCC2)ccc1C(=O)O` [Repaglinide, reference compound], the IC50 ([1]; Huh-7) is reported as 12.2 µM.

With `COC(=O)[C@H]1[C@H]2C[C@@H]3c4[nH]c5cc(OC)ccc5c4CCN3C[C@H]2C[C@@H](OC(=O)/C=C/c2cc(OC)c(OC)c(OC)c2)[C@@H]1OC` [Rescinnamine, reference compound] the IC50 ([1]; Huh-7) was 7.88 µM.

`COC(=O)[C@H]1[C@H]2C[C@@H]3c4[nH]c5cc(OC)ccc5c4CCN3C[C@H]2C[C@@H](OC(=O)c2cc(OC)c(OC)c(OC)c2)[C@@H]1OC` [Reserpine, reference compound] showed an IC50 ([1]; Huh-7) of 25.3 µM.

In the case of `CO[C@H]1/C=C/O[C@@]2(C)Oc3c(C)c(O)c4c(c3C2=O)C2=NC3(CCN(CC(C)C)CC3)NC2=C(NC(=O)/C(C)=C\C=C\[C@H](C)[C@H](O)[C@@H](C)[C@@H](O)[C@@H](C)[C@H](OC(C)=O)[C@@H]1C)C4=O` [Rifabutin, reference compound], the IC50 ([1]; Huh-7) is reported as 17.2 µM.

In the case of `CO[C@H]1/C=C/O[C@@]2(C)Oc3c(C)c(O)c4c(O)c(c5c(nc6cc(C)ccn65)c4c3C2=O)NC(=O)/C(C)=C\C=C\[C@H](C)[C@H](O)[C@@H](C)[C@@H](O)[C@@H](C)[C@H](OC(C)=O)[C@@H]1C` [Rifaximin, reference compound], the IC50 ([1]; Huh-7) is reported as 19.4 µM.

In the case of `CC(C)c1nc(CN(C)C(=O)N[C@H](C(=O)N[C@@H](Cc2ccccc2)C[C@H](O)[C@H](Cc2ccccc2)NC(=O)OCc2cncs2)C(C)C)cs1` [Ritonavir, reference compound], the IC50 ([1]; Huh-7) is reported as 14.9 µM.

With `Oc1ccc(-c2nc(-c3ccc(F)cc3)c(-c3ccncc3)[nH]2)cc1` [SB-202190, reference compound] the IC50 ([1]; Huh-7) was 5.18 µM.

With `CN/C(=N\c1ccc(C2=NNC(=O)CC2C)cc1)NC#N` (stereo not shown) [Siguazodan, reference compound] the IC50 ([1]; Huh-7) was 2.2 µM.

`CCC(C)(C)C(=O)O[C@H]1C[C@@H](C)C=C2C=C[C@H](C)[C@H](CC[C@@H](O)C[C@@H](O)CC(=O)O)[C@H]21` [Simvastatin hydroxy acid, ammonium salt, simvastatin hydroxy acid, ammonium salt, reference compound] gave an IC50 ([1]; Huh-7) of 13.4 µM.

In the case of `CCC(C)(C)C(=O)O[C@H]1C[C@@H](C)C=C2C=C[C@H](C)[C@H](CC[C@@H]3C[C@@H](O)CC(=O)O3)[C@H]21` [Simvastatin, simvastatin, reference compound], the IC50 ([1]; Huh-7) is reported as 21.3 µM.

For `C[C@]12Cc3c[nH]nc3C[C@@H]1CC[C@@H]1[C@@H]2CC[C@@]2(C)[C@H]1CC[C@]2(C)O` [Stanozolol, stanozolol, reference compound], the IC50 ([1]; Huh-7) was 15.2 µM.

For `O=C(CCCCCCC(=O)NO)NO` [Suberohydroxamic acid, suberohydroxamic acid, reference compound], the IC50 ([1]; Huh-7) was 4.02 µM.

In the case of `CCCCCCCCCCCCCCOc1ccc(C(=O)O)o1` [TOFA, 5-(tetradecyloxy)-2-furancarboxylic acid, reference compound], the IC50 ([1]; Huh-7) is reported as 5.53 µM.

Molecule `CCC[C@H](NC(=O)[C@@H]1[C@H]2CCC[C@H]2CN1C(=O)[C@@H](NC(=O)[C@@H](NC(=O)c1cnccn1)C1CCCCC1)C(C)(C)C)C(=O)C(=O)NC1CC1` [Telaprevir (VX-950), vx-950, reference compound] has an IC50 ([1]; Huh-7) of 0.529 µM.

With `CC(C)N1CCN(c2ccc(OCC3COC(Cn4cncn4)(c4ccc(Cl)cc4Cl)O3)cc2)CC1` (stereo not shown) [Terconazole, reference compound] the IC50 ([1]; Huh-7) was 2.55 µM.

In the case of `C/C=C(/C)C(=O)O[C@H]1C(C)=C2[C@H]([C@@H]1OC(=O)CCCCCCC)[C@@](C)(OC(C)=O)C[C@H](OC(=O)CCC)[C@@]1(O)[C@H]2OC(=O)[C@@]1(C)O` [Thapsigargin, reference compound], the IC50 ([1]; Huh-7) is reported as 0.0113 µM.

Molecule `C=C(NC(=O)C(=C)NC(=O)c1csc(C2=N[C@@H]3c4csc(n4)[C@H]4NC(=O)c5csc(n5)[C@H]([C@](C)(O)[C@@H](C)O)NC(=O)[C@H]5CSC(=N5)/C(=C/C)NC(=O)[C@H]([C@@H](C)O)NC(=O)c5csc(n5)[C@]3(CC2)NC(=O)[C@H](C)NC(=O)C(=C)NC(=O)[C@H](C)NC(=O)[C@H]([C@@H](C)CC)N[C@@H]2C=Cc3c([C@H](C)O)cc(nc3[C@H]2O)C(=O)O[C@@H]4C)n1)C(N)=O` [Thiostrepton, reference compound] has an IC50 ([1]; Huh-7) of 3.84 µM.

`CN(C)C(=S)SSC(=S)N(C)C` [Thiram, thiram] gave an IC50 ([1]; Huh-7) of 3.64 µM.

In the case of `O=c1oc2cc(O)ccc2s1` [Tioxolone, reference compound], the IC50 ([1]; Huh-7) is reported as 16.2 µM.

Molecule `Nc1n[n+]([O-])c2ccccc2[n+]1[O-]` [Tirapazamine, reference compound] has an IC50 ([1]; Huh-7) of 1.83 µM.

Work on `O=C(O)Cc1cc(I)c(Oc2ccc(O)c(I)c2)c(I)c1` [Tiratricol, reference compound] yielded an IC50 ([1]; Huh-7) of 15.6 µM.

Work on `Cc1ccc(O)c([C@H](CCN(C(C)C)C(C)C)c2ccccc2)c1` [Tolterodine (e.g., tartrate), Tolterodine, reference compound] yielded an IC50 ([1]; Huh-7) of 27.2 µM.

`CC[C@@]1(O)C(=O)OCc2c1cc1n(c2=O)Cc2cc3c(CN(C)C)c(O)ccc3nc2-1` [Topotecan (e.g., hydrochloride), topotecan, reference compound] showed an IC50 ([1]; Huh-7) of 0.095 µM.

For `CN(C)CCOc1ccc(/C(=C(/CCCl)c2ccccc2)c2ccccc2)cc1` [Toremifene, reference compound], the IC50 ([1]; Huh-7) was 15.9 µM.

For `COc1cc2c(cc1OC)-c1c/c(=N\c3c(C)cc(C)cc3C)n(C)c(=O)n1CC2` [Trequinsin (e.g., hydrochloride), Trequinsin, reference compound], the IC50 ([1]; Huh-7) was 2.93 µM.

Molecule `CN1CCN(CCCN2c3ccccc3Sc3ccc(C(F)(F)F)cc32)CC1` [Trifluoperazine (e.g., hydrochloride), Trifluoperazine, reference compound] has an IC50 ([1]; Huh-7) of 4.97 µM.

Molecule `O=C(CCCN1CCC(O)(c2cccc(C(F)(F)F)c2)CC1)c1ccc(F)cc1` [Trifluperidol, reference compound] has an IC50 ([1]; Huh-7) of 7.8 µM.

Work on `O=c1[nH]c(=O)n([C@H]2C[C@H](O)[C@@H](CO)O2)cc1C(F)(F)F` [Trifluridine, trifluridine, reference compound] yielded an IC50 ([1]; Huh-7) of 0.38 µM.

In the case of `CC(CN(C)C)CN1c2ccccc2CCc2ccccc21` (stereo not shown) [Trimipramine (e.g., maleate), Trimipramine, reference compound], the IC50 ([1]; Huh-7) is reported as 15.6 µM.

`O=C1CC(=O)c2c(Cl)c(Cl)c(Cl)c(Cl)c21` [UCH-L3 inhibitor, 4,5,6,7-Tetrachloroindan-1,3-dione, reference compound] gave an IC25 ([1]; GETYPE1B, Huh-7, read-out: IC25 (values noted with an asterisk)) of 19.7 µM.

Molecule `CC(C)[C@H](N)C(=O)O[C@@H]1[C@@H](CO)O[C@@H](n2ccc(N)nc2=O)[C@]1(C)O` [Valopicitabine (NM-283), Valopicitabine, reference compound] has an IC50 ([1]; Huh-7) of 11.2 µM.

In the case of `COc1cc(C=O)ccc1O` [Vanillin (e.g., acetate), Vanillin], the IC50 ([1]; Huh-7) is reported as 3.73 µM.

For `Nc1ncnc2c1ncn2[C@@H]1O[C@H](CO)[C@@H](O)[C@@H]1O` [Vidarabine, vidarabine, reference compound], the IC50 ([1]; Huh-7) was 26.7 µM.

With `CC[C@]1(O)C[C@H]2CN(CCc3c([nH]c4ccccc34)[C@@](C(=O)OC)(c3cc4c(cc3OC)N(C=O)[C@H]3[C@@](O)(C(=O)OC)[C@H](OC(C)=O)[C@]5(CC)C=CCN6CC[C@]43[C@@H]65)C2)C1` [Vincristine (e.g., sulfate), Vincristine, reference compound] the IC50 ([1]; Huh-7) was 0.02 µM.

`COC[C@H]1OC(=O)c2coc3c2[C@@]1(C)C1=C(C3=O)[C@@H]2CCC(=O)[C@@]2(C)C[C@H]1OC(C)=O` [Wortmannin, wortmannin, reference compound] showed an IC50 ([1]; Huh-7) of 3.16 µM.

Work on `COc1cc(C(=O)NS(=O)(=O)c2ccccc2C)ccc1Cc1cn(C)c2ccc(NC(=O)OC3CCCC3)cc12` [Zafirlukast, reference compound] yielded an IC50 ([1]; Huh-7) of 18.5 µM and an IC50 ([1]; Huh-7, read-out: IC50 in our hands) of 18.5 µM.

For `CN(C)C/C=C(/c1ccc(Br)cc1)c1cccnc1` [Zimelidine (e.g., dihydrochloride), Zimelidine, reference compound], the IC50 ([1]; Huh-7) was 15.1 µM.
